The text below walks through data of patent US10864168B2, “Bioactive delivery vehicles” (The Regents of the University of California, priority 2014, dated 2020).

A short description of data set [1]: Storage stability of encapsulated retinol at room temperature, exposure to atmospheric oxygen. It is filed as physicochemical. Particulars: cell-based encapsulants / lipid membrane microcapsules. The text has this:
FIG. 10 illustrates stability of retinol encapsulated yeast cells as compared to retinol in emulsion and nanoparticles at room temperature. Stability of all-trans retinol encapsulated in casein stabilized emulsion, zein nanoparticles and yeast cells. The percent recovery of retinol in model systems after exposure to atmospheric oxygen is shown. Yeast cells provided the most stability to retinol, nearly 100% up to 5 days, while zein and casein systems have <10% after 4 days.
Retinol was selected as a model bioactive as it is highly susceptible to oxidative degradation at room temperature.

The test system of the next data set is inactivated yeast. Briefly: Encapsulation of bioactives into inactivated yeast cells (conventional diffusion, vacuum infusion, pressure). It is filed as physicochemical, Saccharomyces cerevisiae. The text has this:
Prior to encapsulation of bioactives, selected strains of both yeast and algal cells are inactivated with a chemical treatment. Chemical inactivation of yeast or algal cells stops the metabolic processes while preserving the structure and chemical composition of the cells. […] The concentration of ethanol is selected based on the results of the previous study. Briefly, 1 gm of yeast or algal cells pellet is suspended in the 35% ethanolic solution of the selected bioactive compound. […] We have determined the % ethanol to achieve sufficient encapsulation of the selected encapsulated bioactive compounds using both the vacuum and high pressure assisted encapsulation process. Yeast or algal cell samples suspended in the ethanolic solution with the bioactive compound are sealed in boilable vacuum bags (Prime Source) at 99% vacuum (Ultravac 250, Koch Equipment LLC). […] The sealed samples are covered with aluminum foil to prevent any photo-degradation of the bioactives and incubated at room temperature (25° C.) for 10 minutes. Samples are emptied into 50 mL centrifuge tubes, centrifuged at 2200 rpm for 10 minutes to pellet the cells and the pelleted cells are washed twice with ethanolic solution (35%) and then five times with excess water to remove unencapsulated bioactives. […] Samples are emptied into 50 mL centrifuge tubes, centrifuged to pellet the cells (2200 rpm for 10 minutes) and the pelleted cells are washed twice with ethanolic solution (35%) and then five times with excess water to remove unencapsulated bioactives. Briefly, yeast or algal samples in a 35% ethanolic solution of the selected bioactive compound are covered with a single layer of aluminum foil to prevent photolysis. Samples are then placed into a rotary incubator at 50° C. and 200 rpm for 24 hours. After removal from the incubator, cells are removed by centrifugation at 2000 rpm for 10 minutes. The supernatant is decanted to isolate the pelleted cells and the pelleted cells are washed as described above to remove unencapsulated bioactives. Cells are sonicated to disrupt the cellular structure. A methanol extraction is utilized to extract the encapsulated bioactives from the disrupted yeast or algal cells. 0.05 g of cells (wet basis) with encapsulated bioactives are sonicated to disrupt cellular structure and subsequently incubated with 1 mL methanol. Samples are then briefly vortexed and centrifuged at 14,000 rpm for 10 minutes. The concentration of bioactive compound dissolved in the organic phase is measured using UV-vis spectrophotometer. […] Measuring loading of these bioactive compounds in various emulsions and nanoparticles has been described. The encapsulation efficiency is determined as follows: [formula] where CE is the mass of extracted bioactive from the cells after encapsulation and CT is the amount of bioactive initially added to the cells. We have developed an innovative bioencapsulation process that provides rapid and efficient infusion of bioactives in isolated cells and lipid bodies. In this process, yeast or algal cells incubated in a solution containing bioactive were subjected to a vacuum (97% vacuum) or mild-high hydrostatic pressure (35-100 MPa) for ˜5-10 minutes. […] The results of these measurements were compared with the conventional process used for encapsulation of bioactive compounds in yeast cells.

The nature of data set [2]: Thermal stability of retinol, cell encapsulated versus emulsions. To be noted: vacuum and/or HPP infusion methods, compared to emulsions. It is filed as physicochemical. As for the experimental part:
Comparative percent recovery of retinol in emulsions and yeast after processing at 70° C. for 30 minutes. The retinol was extracted using methanol and the absorbance was measured at 325 nm.

The next data set has as its system E. coli (BL21). The data set can be described thus: Encapsulation efficiency into bacteria by vacuum infusion. It is filed as physicochemical. To be noted: vacuum infused, 35% ethanol.
The subject of the next data set is L. casei (S1). The description is as above. It is filed as physicochemical, Lactobacillus casei. Particulars: vacuum infused, 35% ethanol.
Another data set has as its system porcine skin. Briefly: Nile Red release from yeast encapsulation system into porcine skin. Particulars: yeast microcapsules loaded with Nile Red; room temperature, 12 hours. As to the method: The Nile Red fluorescence signal contrast of porcine skin incubated with yeast encapsulation system and non-incubated porcine skin was evaluated. Yeast microcapsules were loaded with Nile Red dye and spread on porcine skin surface. After incubation at room temperature for 12 hours, fluorescence images were taken on the 20 μm-thick slice of tissue cross-section. The results are depicted in FIG. 17. […] This encapsulation system thus provides an option for convenient, pain-free and efficient compound delivery, which can be self-administered and operate as an alternative to oral dosing or injections.

Setting [3] is: inactivated yeast, Conventional Methods, 24 hours, 50° C.
Where [4] appears, read: inactivated yeast, Mild Pressure (35 Mpa), 10 minutes.
Where [5] appears, read: inactivated yeast, Vacuum (5 minutes).
Setting [6] is: 100 mM PBS, pH = 6.5, Conventional Diffusion, saturated solution, 35% v/v ethanol.
Setting [7] is: 100 mM PBS, pH = 6.5, HPP (200 MPa), saturated solution, 35% v/v ethanol.
Where [8] appears, read: 100 mM PBS, pH = 6.5, Vacuum Infusion, saturated solution, 35% v/v ethanol.
[9] abbreviates: 2% Tween 20 in 100 mM Tris Buffer, pH = 8, Conventional Diffusion, saturated solution, 35% v/v ethanol.
Where [10] appears, read: 2% Tween 20 in 100 mM Tris Buffer, pH = 8, HPP (200 MPa), saturated solution, 35% v/v ethanol.
The mark [11] stands for this setting: 2% Tween 20 in 100 mM Tris Buffer, pH = 8, Vacuum Infusion, saturated solution, 35% v/v ethanol.
The mark [12] stands for this setting: Conventional Diffusion, Single Loading.
[13] abbreviates: Vacuum, Dual Loading (curcumin and fisetin added together).
[14] abbreviates: commercial yeast, 1 vacuum cycle, 35% ethanol.
Setting [15] is: commercial yeast, 3 cycles of 99% vacuum, 5 min incubation between, no additional fisetin added.

Molecules are shown by their SMILES.

Turning to `CC1=C(/C=C/C(C)=C/C=C/C(C)=C/CO)C(C)(C)CCC1` [Retinol, retinol], in data set [1], the “improvement of storage stability as compared to other encapsulation systems, including nanoparticles and emulsions” value was “at least 5 fold”. Besides, the “encapsulation efficiency (percent ratio of encapsulated bioactive with respect to total bioactive in solution)” value in the data set on inactivated yeast (setting [3]) is reported as 15%; in the data set on inactivated yeast (setting [4]), 70%; in the data set with inactivated yeast (setting [5]), 45%. Moreover, the “reduction of loss of retinol during thermal processing” value in data set [2] is recorded as 25-30%.

Consider `O=c1c(O)c(-c2ccc(O)c(O)c2)oc2cc(O)ccc12` [Fisetin, fisetin], for which the “Encapsulation Efficiency” value with E. coli (BL21) is listed as 30.8%; with inactivated yeast (setting [6]), 42.6%; in the data set on inactivated yeast (setting [7]), 99.3%; in the data set with inactivated yeast (setting [8]) it was 105.3%; in the data set with inactivated yeast (setting [9]), 58.7%; in the data set on inactivated yeast (setting [10]) it was 54.8%. The “Encapsulation Efficiency” value in the data set with inactivated yeast (setting [11]) worked out at 80.7%; with inactivated yeast (setting [12]), 12.2%; in the data set with inactivated yeast (setting [13]), 96.0%; in the data set with L. casei (S1) it was 43.2%. Further, the “Mass of Encapsulated Bioactive in Bacteria” value amounted to 1.619 mg/g with E. coli (BL21) and 2.271 mg/g in the data set with L. casei (S1). Also, the “Mass of Encapsulated Bioactive in Yeast” value with inactivated yeast (setting [6]) was 1.11 mg/g; with inactivated yeast (setting [7]) it was 2.59 mg/g; in the data set with inactivated yeast (setting [8]) it was 2.75 mg/g; in the data set with inactivated yeast (setting [9]), 2.31 mg/g; in the data set with inactivated yeast (setting [10]), 2.16 mg/g; with inactivated yeast (setting [11]), 3.18 mg/g. The “Mass of Encapsulated Bioactive in Yeast” value turned out to be 0.061 mg/g in the data set with inactivated yeast (setting [12]), 0.480 mg/g with inactivated yeast (setting [13]), 3.65 mg/g with inactivated yeast (setting [14]) and 4.01 mg/g in the data set on inactivated yeast (setting [15]). In addition, the “Encapsulated Efficiency” value in the data set with inactivated yeast (setting [14]) is reported as 69.5%; with inactivated yeast (setting [15]), 76.4%. Moreover, the results for the “encapsulation efficiency (percent ratio of encapsulated bioactive with respect to total bioactive in solution)” value with inactivated yeast (setting [3]), in the data set with inactivated yeast (setting [4]) and in the data set on inactivated yeast (setting [5]) were 11%, 68% and 64%, respectively. The “encapsulation efficiency relative to conventional diffusion techniques” value with inactivated yeast (inactivated yeast, vacuum or HPP) was 1.4-2.3 ×.

Take `CCN(CC)c1ccc2nc3c4ccccc4c(=O)cc-3oc2c1` [Nile Red]: the “release and permeation into porcine skin” value in the data set with porcine skin is “effectively released from yeast cells, further permeated crossing the stratum corneum and reached the dermis layer”.
